Source: US20250147039A1, “Compounds for complexation of rare earth elements and/or s-, p-, d- block metals, their coordination compounds, peptide conjugates, method of their preparation and use thereof” (USTAV ORGANICKE CHEMIE A BIOCHEMIE AV CR V.V.I., priority 2021, published 2025)
Values belong to the molecule of their own block, whether it stands above or below them.

Tests used:
[1] = Formation of 1,5-cz-[M(Lig)] from Lig and M^III ions (metal dependent click-zip) (Charts 4, 5); type: physicochemical; conditions: MOPS/NaOH buffer pH 7.0, TD728, TD827 in 50% i-PrOH; for conversion to 1,5-cz-[M(Lig)], Y^III: TD714 sum of two diastereoisomers
[2] = Formation of 1,5-cz-[M(Lig)] from Lig and M^II ions (metal dependent click-zip) (Charts 6, 7); type: physicochemical; conditions: MOPS/NaOH buffer pH 7.0, TD728 in 50% i-PrOH
[3] = Formation of 1,5-cz-[Ln(Lig)] from Lig and Ln^III ions (metal dependent click-zip), MOPS/NaOH buffer pH 7.0, analytical HPLC (Charts 1, 2); conditions: MOPS/NaOH buffer pH 7.0
[4] = Dissociation of chelates in aq. 6.0M HCl at 80° C. (acid decomplexation kinetic inertness) (Chart 17); type: physicochemical
[5] = Dissociation of chelates in aq. 1.0M HCl at 80° C. (acid decomplexation kinetic inertness) (Chart 18); type: physicochemical
[6] = Dissociation of chelates in aq. 0.1M HCl at 80° C. (acid decomplexation kinetic inertness) (Chart 19); type: physicochemical
[7] = Dissociation of chelates in aq. 0.1M HCl at RT (acid decomplexation kinetic inertness) (Chart 20); type: physicochemical

Structure (SMILES): O=C1C[N@@]2CC[N@]3CC[N@@](CC[N@](CC2)Cc2cccc(n2)-c2cnnn2Cc2cc(-c4ccccc4)cc(n2)C3)CC(=O)[O][Tm][O]1 [TD601]
fraction of intact chelate ([4]; 1 month): 69%
fraction of intact chelate ([4]; 1 week): 92%
fraction of intact chelate ([4]; 1 hour): 100%
fraction of intact chelate ([4]; 1 day): 99%
fraction of intact chelate ([5]; 1 month): 100%
fraction of intact chelate ([5]; 1 week): 100%
fraction of intact chelate ([5]; 1 hour): 100%
fraction of intact chelate ([5]; 1 day): 100%
fraction of intact chelate ([6]; 1 month): 100%
fraction of intact chelate ([6]; 1 week): 100%
fraction of intact chelate ([6]; 1 hour): 100%
fraction of intact chelate ([6]; 1 day): 100%
fraction of intact chelate ([7]; 1 month): 100%
fraction of intact chelate ([7]; 1 week): 100%
fraction of intact chelate ([7]; 1 hour): 100%
fraction of intact chelate ([7]; 1 day): 100%

Structure (SMILES): O=C1C[N@@]2CC[N@]3CC[N@@](CC[N@](CC2)Cc2cccc(n2)-c2cnnn2Cc2cc(-c4ccccc4)cc(n2)C3)CC(=O)[O][Lu][O]1 [TD522]
fraction of intact chelate ([4]; 1 month): 98%
fraction of intact chelate ([4]; 1 week): 99%
fraction of intact chelate ([4]; 1 hour): 100%
fraction of intact chelate ([4]; 1 day): 100%
fraction of intact chelate ([5]; 1 month): 100%
fraction of intact chelate ([5]; 1 week): 100%
fraction of intact chelate ([5]; 1 hour): 100%
fraction of intact chelate ([5]; 1 day): 100%
fraction of intact chelate ([6]; 1 month): 100%
fraction of intact chelate ([6]; 1 week): 100%
fraction of intact chelate ([6]; 1 hour): 100%
fraction of intact chelate ([6]; 1 day): 100%
fraction of intact chelate ([7]; 1 month): 100%
fraction of intact chelate ([7]; 1 week): 100%
fraction of intact chelate ([7]; 1 hour): 100%
fraction of intact chelate ([7]; 1 day): 100%

Structure (SMILES): O=C1C[N@@]2CC[N@]3CC[N@@](CC[N@](CC2)Cc2cccc(n2)-c2cnnn2Cc2cc(-c4ccccc4)cc(n2)C3)CC(=O)[O][Cd][O]1 [TD880]
fraction of intact chelate ([4]; 1 month): 0%
fraction of intact chelate ([4]; 1 week): 0%
fraction of intact chelate ([4]; 1 hour): 43%
fraction of intact chelate ([4]; 1 day): 0%
fraction of intact chelate ([5]; 1 month): 63%
fraction of intact chelate ([5]; 1 week): 90%
fraction of intact chelate ([5]; 1 hour): 100%
fraction of intact chelate ([5]; 1 day): 99%
fraction of intact chelate ([6]; 1 month): 100%
fraction of intact chelate ([6]; 1 week): 100%
fraction of intact chelate ([6]; 1 hour): 100%
fraction of intact chelate ([6]; 1 day): 100%
fraction of intact chelate ([7]; 1 month): 100%
fraction of intact chelate ([7]; 1 week): 100%
fraction of intact chelate ([7]; 1 hour): 100%
fraction of intact chelate ([7]; 1 day): 100%

The next lines start with the values.

conversion to 1,5-cz-[M(Lig)], Sc^III ([1]; 1 week at 80° C.): 1%
conversion to 1,5-cz-[M(Lig)], Y^III ([1]; 1 week at 80° C.): 82%
conversion to 1,5-cz-[M(Lig)], Sc^III ([1]; 1 hour at 80° C.): 0%
conversion to 1,5-cz-[M(Lig)], Y^III ([1]; 1 hour at 80° C.): 1%
conversion to 1,5-cz-[M(Lig)], Ca^II ([2]; 1 week at 80° C.): 83%
conversion to 1,5-cz-[M(Lig)], Cd^II ([2]; 1 week at 80° C.): 96%
conversion to 1,5-cz-[M(Lig)], Ca^II ([2]; 1 hour at 80° C.): 1%
conversion to 1,5-cz-[M(Lig)], Cd^II ([2]; 1 hour at 80° C., TD714 sum of two diastereoisomers): 2%
conversion to 1,5-cz-[Ln(Lig)], Ce^III ([3]; after 1 week at 80° C.): 11%
conversion to 1,5-cz-[Ln(Lig)], Ce^III ([3]; after 1 hour at 80° C.): 0%
conversion to 1,5-cz-[Ln(Lig)], Dy^III ([3]; after 1 week at 80° C.): 76%
conversion to 1,5-cz-[Ln(Lig)], Dy^III ([3]; after 1 hour at 80° C.): 1%
conversion to 1,5-cz-[Ln(Lig)], Er^III ([3]; after 1 week at 80° C.): 93%
conversion to 1,5-cz-[Ln(Lig)], Er^III ([3]; after 1 hour at 80° C.): 3%
conversion to 1,5-cz-[Ln(Lig)], Eu^III ([3]; after 1 week at 80° C.): 51%
conversion to 1,5-cz-[Ln(Lig)], Eu^III ([3]; after 1 hour at 80° C.): 1%
conversion to 1,5-cz-[Ln(Lig)], Gd^III ([3]; after 1 week at 80° C.): 54%
conversion to 1,5-cz-[Ln(Lig)], Gd^III ([3]; after 1 hour at 80° C.): 1%
conversion to 1,5-cz-[Ln(Lig)], Ho^III ([3]; after 1 week at 80° C.): 84%
conversion to 1,5-cz-[Ln(Lig)], Ho^III ([3]; after 1 hour at 80° C.): 2%
conversion to 1,5-cz-[Ln(Lig)], La^III ([3]; after 1 week at 80° C.): 18%
conversion to 1,5-cz-[Ln(Lig)], La^III ([3]; after 1 hour at 80° C.): 0%
conversion to 1,5-cz-[Ln(Lig)], Lu^III ([3]; after 1 week at 80° C.): 99%
conversion to 1,5-cz-[Ln(Lig)], Lu^III ([3]; after 1 hour at 80° C.): 6%
conversion to 1,5-cz-[Ln(Lig)], Nd^III ([3]; after 1 week at 80° C.): 34%
conversion to 1,5-cz-[Ln(Lig)], Nd^III ([3]; after 1 hour at 80° C.): 0%
conversion to 1,5-cz-[Ln(Lig)], Pr^III ([3]; after 1 week at 80° C.): 27%
conversion to 1,5-cz-[Ln(Lig)], Pr^III ([3]; after 1 hour at 80° C.): 0%
conversion to 1,5-cz-[Ln(Lig)], Sm^III ([3]; after 1 week at 80° C.): 48%
conversion to 1,5-cz-[Ln(Lig)], Sm^III ([3]; after 1 hour at 80° C.): 1%
conversion to 1,5-cz-[Ln(Lig)], Tb^III ([3]; after 1 week at 80° C.): 68%
conversion to 1,5-cz-[Ln(Lig)], Tb^III ([3]; after 1 hour at 80° C.): 1%
conversion to 1,5-cz-[Ln(Lig)], Tm^III ([3]; after 1 week at 80° C.): 97%
conversion to 1,5-cz-[Ln(Lig)], Tm^III ([3]; after 1 hour at 80° C.): 4%
conversion to 1,5-cz-[Ln(Lig)], Yb^III ([3]; after 1 week at 80° C.): 98%
conversion to 1,5-cz-[Ln(Lig)], Yb^III ([3]; after 1 hour at 80° C.): 5%
Structure (SMILES): CC(C)(C)C#Cc1cccc(CN2CCN(CC(=O)O)CCN(Cc3cccc(CN=[N+]=[N-])n3)CCN(CC(=O)O)CC2)n1 [TD959]

fraction of intact chelate ([4]; 1 month): 0%
fraction of intact chelate ([4]; 1 week): 0%
fraction of intact chelate ([4]; 1 hour): 0%
fraction of intact chelate ([4]; 1 day): 0%
fraction of intact chelate ([5]; 1 month): 0%
fraction of intact chelate ([5]; 1 week): 0%
fraction of intact chelate ([5]; 1 hour): 0%
fraction of intact chelate ([5]; 1 day): 0%
fraction of intact chelate ([6]; 1 month): 0%
fraction of intact chelate ([6]; 1 week): 0%
fraction of intact chelate ([6]; 1 hour): 0%
fraction of intact chelate ([6]; 1 day): 0%
fraction of intact chelate ([7]; 1 month): 0%
fraction of intact chelate ([7]; 1 week): 6%
fraction of intact chelate ([7]; 1 hour): 98%
fraction of intact chelate ([7]; 1 day): 58%
Structure (SMILES): O=C1C[N@@]2CC[N@]3CC[N@@](CC[N@](CC2)Cc2cccc(n2)-c2cn(nn2)Cc2cc(-c4ccccc4)cc(n2)C3)CC(=O)[O][Gd][O]1 [TD875]

fraction of intact chelate ([4]; 1 month): 0%
fraction of intact chelate ([4]; 1 week): 0%
fraction of intact chelate ([4]; 1 hour): 77%
fraction of intact chelate ([4]; 1 day): 0%
fraction of intact chelate ([5]; 1 month): 0%
fraction of intact chelate ([5]; 1 week): 21%
fraction of intact chelate ([5]; 1 hour): 100%
fraction of intact chelate ([5]; 1 day): 82%
fraction of intact chelate ([6]; 1 month): 60%
fraction of intact chelate ([6]; 1 week): 90%
fraction of intact chelate ([6]; 1 hour): 100%
fraction of intact chelate ([6]; 1 day): 98%
fraction of intact chelate ([7]; 1 month): 100%
fraction of intact chelate ([7]; 1 week): 100%
fraction of intact chelate ([7]; 1 hour): 100%
fraction of intact chelate ([7]; 1 day): 100%
Structure (SMILES): O=P1(c2ccccc2)C[N@@]2CC[N@]3CC[N@@](CC[N@](CC2)Cc2cccc(n2)-c2cnnn2Cc2cccc(n2)C3)CP(=O)(c2ccccc2)[O][Gd][O]1 (stereo partly shown) [TD925]

fraction of intact chelate ([4]; 1 month): 0%
fraction of intact chelate ([4]; 1 week): 0%
fraction of intact chelate ([4]; 1 hour): 0%
fraction of intact chelate ([4]; 1 day): 0%
fraction of intact chelate ([5]; 1 month): 0%
fraction of intact chelate ([5]; 1 week): 0%
fraction of intact chelate ([5]; 1 hour): 0%
fraction of intact chelate ([5]; 1 day): 0%
fraction of intact chelate ([6]; 1 month): 0%
fraction of intact chelate ([6]; 1 week): 0%
fraction of intact chelate ([6]; 1 hour): 0%
fraction of intact chelate ([6]; 1 day): 0%
fraction of intact chelate ([7]; 1 month): 0%
fraction of intact chelate ([7]; 1 week): 0%
fraction of intact chelate ([7]; 1 hour): 76%
fraction of intact chelate ([7]; 1 day): 4%
Structure (SMILES): O=C1C[N@@]2CC[N@]3CC[N@@](CC[N@](CC2)Cc2cccc(n2)-c2cnnn2Cc2cc(-c4ccccc4)cc(n2)C3)CC(=O)[O][La][O]1 [TD651]

fraction of intact chelate ([4]; 1 month): 0%
fraction of intact chelate ([4]; 1 week): 0%
fraction of intact chelate ([4]; 1 hour): 0%
fraction of intact chelate ([4]; 1 day): 0%
fraction of intact chelate ([5]; 1 month): 0%
fraction of intact chelate ([5]; 1 week): 0%
fraction of intact chelate ([5]; 1 hour): 0%
fraction of intact chelate ([5]; 1 day): 0%
fraction of intact chelate ([6]; 1 month): 0%
fraction of intact chelate ([6]; 1 week): 0%
fraction of intact chelate ([6]; 1 hour): 0%
fraction of intact chelate ([6]; 1 day): 0%
fraction of intact chelate ([7]; 1 month): 0%
fraction of intact chelate ([7]; 1 week): 14%
fraction of intact chelate ([7]; 1 hour): 99%
fraction of intact chelate ([7]; 1 day): 68%
Structure (SMILES): O=C1C[N@@]2CC[N@]3CC[N@@](CC[N@](CC2)Cc2cccc(n2)-c2cn(nn2)Cc2cc(-c4ccccc4)cc(n2)C3)CC(=O)[O][Lu][O]1 [TD874]
